Measured values taken from patent US4393225A, “AI-77 Compounds and pharmaceutically acceptable salts thereof” (Asahi Kasei Kogyo Kabushiki Kaisha, priority 1979, dated 1983).

system: ulcer; test: Anti-ulcer test (restraint and water immersion ulcer in rats, i.p.); assay type: in vivo, Male Wistar rats; conditions: Rattus norvegicus, ip, read-out: % Inhibition of Ulcer
Method in brief: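 Male Wistar rats (~150 g), fasted 24 h, dosed i.p. with compound in physiological saline; 1 h later restrained and immersed to xiphisternum in 21 °C water for 6 h. Stomachs examined microscopically, ulcers scored 0–3, and percent inhibition calculated.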

Compound | inhibition in vivo at 50 mg/kg [%]
CC(C)CC(NC(=O)C(O)C1OC(=O)CC1NCCCCBr)C1Cc2cccc(O)c2C(=O)O1 (stereo not shown) [IIIa-18-26] | 94
CCNC1CC(=O)OC1C(OC(C)=O)C(=O)NC(CC(C)C)C1Cc2cccc(OC(C)=O)c2C(=O)O1 (stereo not shown) [IIIa-20-1] | 56

same assay, conditions: Rattus norvegicus, ip; 50 mg/kg i.p.; read-out: % Inhibition of Ulcer

Compound | inhibition in vivo at 50 mg/kg [%]
CCCCCCCCCCCCCCCCCC(=O)OC(C(=O)NC(CC(C)C)C1Cc2cccc(OCC)c2C(=O)O1)C1OC(=O)CC1N (stereo not shown) [IIIa-14-3] | 44
CCOc1cccc2c1C(=O)OC(C(CC(C)C)NC(=O)C(OC(=O)CC)C1OC(=O)CC1N)C2 (stereo not shown) [IIIa-14-9] | 56
CCCCOC(C(=O)NC(CC(C)C)C1Cc2cccc(OC)c2C(=O)O1)C1OC(=O)CC1N (stereo not shown) [IIIa-15-1] | 56
CCCCOc1cccc2c1C(=O)OC(C(CC(C)C)NC(=O)C(OCCCC)C1OC(=O)CC1N)C2 (stereo not shown) [IIIa-15-2] | 56
CCCCCCCCCCCCCCCCCCOc1cccc2c1C(=O)OC(C(CC(C)C)NC(=O)C(OCCCC)C1OC(=O)CC1N)C2 (stereo not shown) [IIIa-15-3] | 44
CCCOC(C(=O)NC(CC(C)C)C1Cc2cccc(OCC)c2C(=O)O1)C1OC(=O)CC1N (stereo not shown) [IIIa-15-8] | 56
COC(C(=O)NC(CC(C)C)C1Cc2cccc(O)c2C(=O)O1)C1OC(=O)CC1N (stereo not shown) [IIIa-16-1] | 72
CCCCCCCCCCCCCCCCCCOC(C(=O)NC(CC(C)C)C1Cc2cccc(O)c2C(=O)O1)C1OC(=O)CC1N (stereo not shown) [IIIa-16-3] | 56
CCOC(C(=O)NC(CC(C)C)C1Cc2cccc(O)c2C(=O)O1)C1OC(=O)CC1N (stereo not shown) [IIIa-16-7] | 72
COC(C(=O)NC(CC(C)C)C1Cc2cccc(OC(C)=O)c2C(=O)O1)C1OC(=O)CC1N (stereo not shown) [IIIa-17-1] | 56
CCCCCCCCCCCCCCCCCC(=O)Oc1cccc2c1C(=O)OC(C(CC(C)C)NC(=O)C(OC)C1OC(=O)CC1N)C2 (stereo not shown) [IIIa-17-2] | 44
CCCC(=O)Oc1cccc2c1C(=O)OC(C(CC(C)C)NC(=O)C(OCC)C1OC(=O)CC1N)C2 (stereo not shown) [IIIa-17-3] | 56
CCC(=O)Oc1cccc2c1C(=O)OC(C(CC(C)C)NC(=O)C(OC)C1OC(=O)CC1N)C2 (stereo not shown) [IIIa-17-5] | 44
CCOC(C(=O)NC(CC(C)C)C1Cc2cccc(OC(=O)C(Cl)(Cl)Cl)c2C(=O)O1)C1OC(=O)CC1N (stereo not shown) [IIIa-17-6] | 56
CC(C)CC(NC(=O)C(O)C1OC(=O)CC1NCC(Cl)(Cl)Cl)C1Cc2cccc(O)c2C(=O)O1 (stereo not shown) [IIIa-18-12] | 94
CC(C)CC(NC(=O)C(O)C1OC(=O)CC1NCc1ccccc1)C1Cc2cccc(O)c2C(=O)O1 (stereo not shown) [IIIa-18-14] | 89
CSCCNC1CC(=O)OC1C(O)C(=O)NC(CC(C)C)C1Cc2cccc(O)c2C(=O)O1 (stereo not shown) [IIIa-18-38] | 94
CCCCCSCCNC1CC(=O)OC1C(O)C(=O)NC(CC(C)C)C1Cc2cccc(O)c2C(=O)O1 (stereo not shown) [IIIa-18-39] | 94
C#CCNC1CC(=O)OC1C(O)C(=O)NC(CC(C)C)C1Cc2cccc(O)c2C(=O)O1 (stereo not shown) [IIIa-18-46] | 100
CC(C)CC(NC(=O)C(O)C1OC(=O)CC1NCCCCCO)C1Cc2cccc(O)c2C(=O)O1 (stereo not shown) [IIIa-18-52] | 94
CC(C)=CCNC1CC(=O)OC1C(O)C(=O)NC(CC(C)C)C1Cc2cccc(O)c2C(=O)O1 (stereo not shown) [IIIa-18-70] | 94
CCNC1CC(=O)OC1C(OC(C)=O)C(=O)NC(CC(C)C)C1Cc2cccc(O)c2C(=O)O1 (stereo not shown) [IIIa-19-1] | 66

Compound | inhibition in vivo at 50 mg/kg [%]
CCCCCCCCCCCCCCCCCCNC1CC(=O)OC1C(OC(C)=O)C(=O)NC(CC(C)C)C1Cc2cccc(O)c2C(=O)O1 (stereo not shown) [IIIa-19-3] | 56
CCNC1CC(=O)OC1C(OC(=O)CC)C(=O)NC(CC(C)C)C1Cc2cccc(O)c2C(=O)O1 (stereo not shown) [IIIa-19-9] | 66
CCCCNC1CC(=O)OC1C(OC(=O)CCC)C(=O)NC(CC(C)C)C1Cc2cccc(O)c2C(=O)O1 (stereo not shown) [IIIa-19-10] | 66
CCNC1CC(=O)OC1C(OC(=O)CC)C(=O)NC(CC(C)C)C1Cc2cccc(OC(=O)C(C)C)c2C(=O)O1 (stereo not shown) [IIIa-20-2] | 56
CC(=O)Oc1cccc2c1C(=O)OC(C(CC(C)C)NC(=O)C(OC(C)=O)C1OC(=O)CC1NCC(Cl)(Cl)Cl)C2 (stereo not shown) [IIIa-20-10] | 56
CCNC1CC(=O)OC1C(O)C(=O)NC(CC(C)C)C1Cc2cccc(OC(C)=O)c2C(=O)O1 (stereo not shown) [IIIa-21-1] | 78
CC(=O)Oc1cccc2c1C(=O)OC(C(CC(C)C)NC(=O)C(O)C1OC(=O)CC1NCC(C)C)C2 (stereo not shown) [IIIa-21-2] | 72
CCCCCCCCCCCCCCCCCCNC1CC(=O)OC1C(O)C(=O)NC(CC(C)C)C1Cc2cccc(OC(C)=O)c2C(=O)O1 (stereo not shown) [IIIa-21-3] | 66
CCNC1CC(=O)OC1C(O)C(=O)NC(CC(C)C)C1Cc2cccc(OC(=O)CC)c2C(=O)O1 (stereo not shown) [IIIa-21-9] | 66
CC(C)CNC1CC(=O)OC1C(O)C(=O)NC(CC(C)C)C1Cc2cccc(OCC(C)C)c2C(=O)O1 (stereo not shown) [IIIa-22-4] | 94
CCCCCCCCCCCCCCCCCCNC1CC(=O)OC1C(O)C(=O)NC(CC(C)C)C1Cc2cccc(OCCCCC)c2C(=O)O1 (stereo not shown) [IIIa-22-6] | 72
COc1cccc2c1C(=O)OC(C(CC(C)C)NC(=O)C(O)C1OC(=O)CC1NCC(Cl)(Cl)Cl)C2 (stereo not shown) [IIIa-22-7] | 78
CCCCCCCCCCCCOc1cccc2c1C(=O)OC(C(CC(C)C)NC(=O)C(O)C1OC(=O)CC1NCC)C2 (stereo not shown) [IIIa-22-9] | 83
CCNC1CC(=O)OC1C(O)C(=O)NC(CC(C)C)C1Cc2cccc(OCC(C)C)c2C(=O)O1 (stereo not shown) [IIIa-22-10] | 83
CCCCCCCCOc1cccc2c1C(=O)OC(C(CC(C)C)NC(=O)C(O)C1OC(=O)CC1NCC)C2 (stereo not shown) [IIIa-22-11] | 83
CCCCCCCCOc1cccc2c1C(=O)OC(C(CC(C)C)NC(=O)C(O)C1OC(=O)CC1NCCCCCCC)C2 (stereo not shown) [IIIa-22-12] | 72
CCOc1cccc2c1C(=O)OC(C(CC(C)C)NC(=O)C(O)C1OC(=O)CC1NCC(Cl)(Cl)Cl)C2 (stereo not shown) [IIIa-22-13] | 78
CCOc1cccc2c1C(=O)OC(C(CC(C)C)NC(=O)C(O)C1OC(=O)CC1NCCCCBr)C2 (stereo not shown) [IIIa-22-25] | 89
CCOc1cccc2c1C(=O)OC(C(CC(C)C)NC(=O)C(O)C1OC(=O)CC1NCCSC)C2 (stereo not shown) [IIIa-22-39] | 94
CCCCCSCCNC1CC(=O)OC1C(O)C(=O)NC(CC(C)C)C1Cc2cccc(OCC)c2C(=O)O1 (stereo not shown) [IIIa-22-40] | 94
C#CCNC1CC(=O)OC1C(O)C(=O)NC(CC(C)C)C1Cc2cccc(OCC)c2C(=O)O1 (stereo not shown) [IIIa-22-47] | 94
CCOc1cccc2c1C(=O)OC(C(CC(C)C)NC(=O)C(O)C1OC(=O)CC1NCCCCCO)C2 (stereo not shown) [IIIa-22-53] | 78

Compound | inhibition in vivo at 50 mg/kg [%]
CCOc1cccc2c1C(=O)OC(C(CC(C)C)NC(=O)C(O)C1OC(=O)CC1NCC=C(C)C)C2 (stereo not shown) [IIIa-22-72] | 94
CCCCNC1CC(=O)OC1C(O)C(=O)NC(CC(C)C)C1Cc2cccc(OCCCC)c2C(=O)O1 (stereo not shown) [IIIa-22-76] | 94
CCCCNC1CC(=O)OC1C(O)C(=O)NC(CC(C)C)C1Cc2cccc(OCCC(C)C)c2C(=O)O1 (stereo not shown) [IIIa-22-77] | 94
CCCCCCCCCCCCCCCCCCOc1cccc2c1C(=O)OC(C(CC(C)C)NC(=O)C(O)C1OC(=O)CC1NCCCC)C2 (stereo not shown) [IIIa-22-78] | 72
CCCCNC1CC(=O)OC1C(O)C(=O)NC(CC(C)C)C1Cc2cccc(OCCCl)c2C(=O)O1 (stereo not shown) [IIIa-22-79] | 94
CCCCNC1CC(=O)OC1C(O)C(=O)NC(CC(C)C)C1Cc2cccc(OCCCBr)c2C(=O)O1 (stereo not shown) [IIIa-22-92] | 94
CCCCCCCCCCCCCCCCCCNC1CC(=O)OC1C(OC(C)=O)C(=O)NC(CC(C)C)C1Cc2cccc(OCC)c2C(=O)O1 (stereo not shown) [IIIa-23-3] | 44
CCNC1CC(=O)OC1C(OC)C(=O)NC(CC(C)C)C1Cc2cccc(OCC)c2C(=O)O1 (stereo not shown) [IIIa-24-1] | 56
CCNC1CC(=O)OC1C(OCC)C(=O)NC(CC(C)C)C1Cc2cccc(OCC)c2C(=O)O1 (stereo not shown) [IIIa-24-2] | 56
CCCCCCCCCCCCCCCCCCNC1CC(=O)OC1C(OCC)C(=O)NC(CC(C)C)C1Cc2cccc(OCCCCCCC)c2C(=O)O1 (stereo not shown) [IIIa-24-4] | 44
CCCCNC1CC(=O)OC1C(OCCCC)C(=O)NC(CC(C)C)C1Cc2cccc(OC)c2C(=O)O1 (stereo not shown) [IIIa-24-10] | 56
CCCCOc1cccc2c1C(=O)OC(C(CC(C)C)NC(=O)C(OC)C1OC(=O)CC1NCC)C2 (stereo not shown) [IIIa-24-16] | 56
CCCCOC(C(=O)NC(CC(C)C)C1Cc2cccc(O)c2C(=O)O1)C1OC(=O)CC1NCC (stereo not shown) [IIIa-25-1] | 66
CCCCCCCCCCCCCCCCCCNC1CC(=O)OC1C(OCCCC)C(=O)NC(CC(C)C)C1Cc2cccc(O)c2C(=O)O1 (stereo not shown) [IIIa-25-3] | 56
CCNC1CC(=O)OC1C(OC)C(=O)NC(CC(C)C)C1Cc2cccc(O)c2C(=O)O1 (stereo not shown) [IIIa-25-9] | 66
COC(C(=O)NC(CC(C)C)C1Cc2cccc(O)c2C(=O)O1)C1OC(=O)CC1NCC(Cl)(Cl)Cl (stereo not shown) [IIIa-25-10] | 66
CCCCOC(C(=O)NC(CC(C)C)C1Cc2cccc(OC(C)=O)c2C(=O)O1)C1OC(=O)CC1NCC (stereo not shown) [IIIa-26-1] | 66
CCCCCCCCCCCCCCCCCCNC1CC(=O)OC1C(OCCCC)C(=O)NC(CC(C)C)C1Cc2cccc(OC(C)=O)c2C(=O)O1 (stereo not shown) [IIIa-26-3] | 44
CCCCCCCCCCCCCCCCCC(=O)Oc1cccc2c1C(=O)OC(C(CC(C)C)NC(=O)C(OCCCC)C1OC(=O)CC1NCC)C2 (stereo not shown) [IIIa-26-5] | 56
CCNC1CC(=O)OC1C(OC)C(=O)NC(CC(C)C)C1Cc2cccc(OC(=O)C(C)C)c2C(=O)O1 (stereo not shown) [IIIa-26-9] | 56
CNC1CC(=O)OC1C(OC(C)=O)C(=O)NC(CC(C)C)C1Cc2cccc(O)c2C(=O)O1 (stereo not shown) [IIIa-28-1] | 66
